Test results as given in patent US12350308B2, “Phosphorylcholine conjugates and uses thereof” (TPCERA LTD., priority 2013, dated 2025).
*1 amine or outer side, *2 acyl side, *3 side chain or, on linkers, in order; H or OH if unused. Where a SMILES comes first, the peptide text is derived from it. [ ]: non-standard residue; d: D form. X1 = C[N+](C)(C)CCOP(=O)([O-])Oc1ccc(N=Nc2cc(C[C@H](N[*:1])C(=O)[*:2])ccc2O)cc1

Assays:
Assay type in all cases: in vivo
colon lysates = experiment: Cytokine expression in colon lysates of colitis mice (immunoblot)
Method: The expression of the proinflammatory cytokines (TNFα, IL-17, IL-113) and anti-inflammatory cytokine IL-10 was analyzed by immunoblot in colon lysates.

[1] = system: female NZBxW/F1 lupus prone mice; experiment: Proteinuria onset and immune complex deposits in lupus prone mice treated with TD-PC; settings: s.c., prophylactic from week 14
Source text: To examine the potential protective effect of TD-PC (SEQ ID NO: 25 conjugated to PC), female NZBxW/F1 lupus prone mice received subcutaneous injections (s.c) of the TD-PC conjugate, phosphorylcholine (PC), tuftsin derivative (SEQ ID NO: 25) or PBS (control) via a prophylactic protocol starting at week 14, before the clinical onset of lupus (n ¼ 15 per group).

NZBxW/F1 lupus mice [2] = experiment: Survival of lupus mice treated with TD-PC (Kaplan-Meier); settings: already at week 24
Method: A main complication of lupus nephritis is a short survival time due to severe kidney failure. Therefore, the survival time of mice treated either with TD-PC or with PC, tuftsin derivative (SEQ ID NO: 25) or PBS (control) was analyzed.

NZBxW/F1 lupus mice [3] = experiment: Circulating anti-dsDNA antibodies in lupus mice treated with TD-PC (ELISA); settings: sera at 30 weeks, dilution 1:800; between groups incl. PBS
Method: Titers of circulating anti-dsDNA antibodies in the sera of control and treated mice were monitored during the development of lupus, and their levels were measured every 3 weeks. […] FIG. 23 presents the anti dsDNA antibodies titers in the sera at the age 30 weeks at a dilution of 1:800.

[4] = system: splenocytes of NZBW/F1 female mice; experiment: Cytokine mRNA in splenocytes of lupus mice treated with TD-PC (RT-PCR); settings: week 30; vs PBS
Method: (§1) NZBW/F1 female mice having lupus were treated with TD-PC (SEQ ID NO: 25 conjugated to PC) or the corresponding control treatments. Mice were sacrificed at week 30, and their splenocytes were studied in-vitro for the expression of pro-inflammatory cytokines (IFNγ, IL-17) and anti-inflammatory (TGFβ, IL-10) cytokines using RT-PCR. […] In contrast, TD-PC increased the mRNA expression of the anti-inflammatory cytokine TGFβ in the (p<0.001) compared to the mRNA expressed by splenocytes derived from PBS-treated mice (FIG. 24A).

[5] = system: splenocytes of NZBW/F1 female mice; experiment: Cytokine secretion in-vitro by splenocytes of lupus mice treated with TD-PC; settings: vs PBS
Method: as §1
However, a prominent increase in anti-inflammatory cytokines (TGFβ, IL-10) secretion in-vitro by splenocytes derived from TD-PC treated mice is illustrated in FIG. 24B. […] IFNγ secretion upon tuftsin derivative (SEQ ID NO: 25) or PC treatments was reduced by 2.5 and 1.5 times respectively (p<0.03 and p<0.04, respectively).

CIA mice [6] = experiment: Arthritis score in CIA mice treated orally or s.c. with TD-PC; settings: day 31
Source text: The main characteristic of rheumatoid arthritis is joint deformation due to high inflammation. The TD-PC effect on arthritis score in CIA mice was monitored. […] Arthritis score was lower in both groups of TD-PC treatment (oral and s.c.) starting two weeks after disease induction—day 14, until the mice were sacrificed—day 31.

CIA mice [7] = experiment: Anti-collagen type II antibodies in sera of CIA mice; settings: day 30, sera dilution 1:200
Method: Titers of anti-collagen type II antibodies in mice sera at a dilution of 1:200 (OD at 405 nm) were measured at day 30 after disease induction while arthritis was fully manifested (FIG. 27). […] The mean OD level of the anti-collagen type II antibodies in the mice treated with TD-PC per os was 0.685±0.09 while the corresponding mean OD level in control mice treated with PBS per os was 1.09±0.17. Furthermore, the mean OD level of the anti-collagen type II antibodies in mice treated with TD-PC s.c was 0.615±0.08, whereas the corresponding mean OD level mice treated with PBS s.c was 1.03±0.13 (p<0.001).

[8] = system: CD4+CD25+FOXP3+ Treg cells; experiment: Treg expansion in splenocytes of CIA mice (FACS), Example 16; settings: vs PBS
Source text: The frequency of CD4+CD25+FOXP3+ Treg cells subset in isolated mice splenocytes, following treatment with TD-PC or control (PBS) is elucidated in FIGS. 29A-29B. […] Representative data of the CD4+CD25+FOXP3+ levels in splenocytes derived from TD-PC and PBS treated mice gating on CD4+ T cells are presented in FIG. 29A and the corresponding statistics is presented in FIG. 29B.

Breg cells = experiment: Breg expansion in splenocytes of CIA mice (FACS), Example 17; settings: subsets CD19+IL-10+TIM-1+ and IL-10highCD5highCD1dhigh; vs PBS
Method: The mean percentage of Breg cells in isolated splenocytes following treatment with TD-PC or PBS was measured within two main subsets CD19+IL-10+TIM-1+ (representative data: FIG. 30A, statistics: FIG. 30C, n=15) and IL-10^highCD5^highCD1d^high (representative data: FIG. 30B, statistics: FIG. 30D, n=15).

[9] = system: splenocytes derived from CIA mice; experiment: Cytokine secretion in-vitro by splenocytes of mice with established CIA; settings: splenocyte culture fluids
Method: Secretion, in-vitro, of pro-inflammatory and anti-inflammatory cytokines by splenocytes derived from CIA mice treated with TD-PC, PBS, TD, PC, TD+PC or untreated mice was evaluated (FIGS. 32A-32D). The following cytokines secretions were examined: pro-inflammatory IL-1β (FIG. 32A), IL-17 (FIG. 32B), IL-6 (FIG. 32C), TNF-α (FIG. 32D) and anti-inflammatory IL-10 (FIG. 32E).

[10] = system: CD4+CD25+FOXP3+ Treg cells; experiment: Treg expansion in splenocytes of mice with established CIA (FACS); settings: isolated splenocytes; PBS 1.4%
Source text: The frequency of CD4+CD25+FOXP3+ Treg cells subset in isolated splenocytes from mice treated with TPC, PBS, TD (SEQ ID NO: 25), PC, TD+PC or untreated is elucidated in FIGS. 33A and 33B. […] Representative data of the CD4+CD25+FOXP3+ levels in splenocytes derived from TD-PC, PBS, TD (SEQ ID NO: 25), PC and TD+PC treated mice and the untreated group, gating on CD4+ T cells are presented in FIG. 33B.

C[C@@H](O)[C@H](N)C(=O)N[C@@H](CCCCN)C(=O)N1CCC[C@H]1C(=O)N[C@@H](CCCNC(=N)N)C(=O)NCC(=O)N[C@@H](Cc1ccc(O)c(N=Nc2ccc(OP(=O)([O-])OCC[N+](C)(C)C)cc2)c1)C(=O)O [TD-PC, Thr-Lys-Pro-Arg-Gly-Tyr-PC] (H-TKPRG[X1]-OH)
IL-1β expression in colon lysates (colon lysates): suppressed | IL-10 expression in colon lysates (colon lysates): Significant increased | IL-17 expression in colon lysates (colon lysates): suppressed | TNFα expression in colon lysates (colon lysates): suppressed | immune complex (IC) deposits in the mesangium / nephritis class [1]: class-II nephritis | mice with proteinuria above 100 mg/dl ([1]; age of 30 weeks, PBS 72%): 21% | percentage of death number vs PBS injected mice (NZBxW/F1 lupus mice [2]): significant difference | titers of circulating anti-dsDNA antibodies (NZBxW/F1 lupus mice [3]): No statistically significant change | mRNA expression of IFNγ in splenocytes [4]: inhibited | mRNA expression of TGFβ in splenocytes [4]: increased | IL-17 secretion from splenocytes ([5]; in vitro): significant decline | IL-10 secretion by splenocytes ([5]; in-vitro): remarkably increased | TGFβ production by splenocytes ([5]; in-vitro): significantly upregulated | reduction of splenocyte secretion of IFNγ ([5]; in-vitro): 5.2 times | mean arthritis score (CIA mice [6]; TD-PC treated groups (oral and s.c.), control 11.8): 1.5 (ranged from 0 to 4) | mean arthritis score (CIA mice [6]; oral, PBS oral 12.6±1.14): 1.6±1.5 | mean arthritis score (CIA mice [6]; s.c., PBS s.c 11±1.22): 1.4±0.84 | mean OD level of anti-collagen type II antibodies (CIA mice [7]; per os, PBS 1.09±0.17): 0.685±0.09 OD at 405 nm | mean OD level of anti-collagen type II antibodies (CIA mice [7]; s.c, PBS 1.03±0.13): 0.615±0.08 OD at 405 nm | CD4+CD25+FOXP3+ Treg cells in isolated splenocytes [8]: striking increase | Breg phenotype expansion in isolated splenocytes (Breg cells): significantly stimulated | mean IL-10 level ([9]; PBS 298): 1745 pg/mL | mean IL-6 level ([9]; PBS 840): 480 pg/mL | mean IL-1β level ([9]; PBS 883): 320 pg/mL | mean TNF-α level ([9]; PBS 1073): 342 pg/mL | mean IL-17 level ([9]; PBS 2170): 1770 pg/mL | mean percentage of CD4+CD25+FOXP3+ Treg cells [10]: 8.75%
